Values belong to the molecule of their own block, whether it stands above or below them. Numbered stars: 1 amine (or outer) side, 2 acyl side, 3 side chain; on linkers, the order of the positions; unused ones are H or OH. Bridge positions count the residues as written; N and C are the ends. Square brackets hold non-standard residues; d marks the D form. Peptide text beside a SMILES is read from it. I, II: the chains in the order shown. Actinocin(9to1) = Cc1c2oc3c(C)ccc(C(=O)[*:1])c3nc-2c(C(=O)[*:2])c(N)c1=O; NMeV = CN[CH](C(=O)O)C(C)C; Sar = CNCC(=O)O
How the values were obtained:
SK-OV-3 = assay: MTT cytotoxicity assay, complexes 1-6; type: cell-based, Human; conditions: SK-OV-3 ovarian cancer, 24 hr exposure, mean of three independent experiments +/- standard error
Experimental: (§1) MTT Assay. This method is based on the reduction of the tetrazolium salt, methylthiazolyldiphenyl-tetrazolium bromide (MTT) into a crystalline blue formazan product by the cellular oxidoreductases of viable cells. The resultant formazan crystal formation is proportional to the number of viable cells. Cells were seeded at 4x 10^5 cells/ml in 96-well plates and incubated at 37°C in 5% CO2 for 24 hours. Cells were treated with a four log range of concentration of the test compounds in triplicate from 0.1 to 500 µM or with a solvent control (0.5% DMSO) in complete medium. Following 24 h incubation, cells were incubated with 20 µl of MTT (5 mg/ml) in 0.1 M PBS, pH 7.4 at 37 °C in a humid atmosphere with 5% CO2 for 4 h. Media was then gently aspirated from test cultures and 100 µL of dimethyl sulphoxide (DMSO) was added to all wells. The plates were then shaken for 2 min and the absorbance was read at 550 nm in a Varioscan plate reader. The IC50 was defined as the concentration of test compound required to reduce the absorbance of the MTT-formazan crystals by 50%, indicating 50% cell deactivation.
Cu(II) bis-phen complexes 4-6 display rapid, low micomolar toxicities against all tumor lines. […] It should be noted that 6 is dinuclear and so contains two active copper units, which may explain this heightened potency.

HT29 [1] = assay: MTT cytotoxicity assay, complexes 1-6; type: cell-based, Human; conditions: 24 hr exposure, mean of three independent experiments +/- standard error
Experimental: (§2) Human colon cancer cell line, HT29 (passage 17 to 30, ATCC, USA), was grown in McCoys's 5a medium supplemented with 2mM L-glutamine and fetal bovine serum (FBS) 10% and containing 100U/ ml penicillin and 100µg / ml streptomycin at 37°C in a humidified atmosphere with 5% CO2 Human Breast Cancer cell line, MCF-7 (passage 16 to 26, ATCC, USA) was grown in Eagle's minimum essential medium containing 2mM L-glutamine, 100U/ ml penicillin,100µg/ ml streptomycin, FBS (10%), 1mM sodium pyruvate and 1% (v/v) non essential amino acids at 37°C in a humidified atmosphere with 5% CO2 Human prostate cancer cell line, DU145 (passage 12 to 29, ATCC, USA) was grown in Eagle's minimum essential medium containing 2mM L-glutamine, 100U/ ml penicillin, 100µg/ ml streptomycin, FBS (10%), 1mM sodium pyruvate and 1% (v/v) non essential amino acids at 37°C in a humidified atmosphere with 5% CO2. All drugs were tested by MTT assay following 24-hour exposure of cells to each compound. Each value represents the mean IC50 of three independent experiments +/- standard error.
as §1

MCF-7 = assay: MTT cytotoxicity assay, complexes 1-6; type: cell-based, Human; conditions: 24 hr exposure, mean of three independent experiments +/- standard error
Experimental: as §2, §1

DU145 = assay: MTT cytotoxicity assay, complexes 1-6; type: cell-based, Human; conditions: 24 hr exposure, mean of three independent experiments +/- standard error
Experimental: as §2, §1

[2] = Solubility in organic solvents; conditions: DMSO/DMF
SW620 = assay: MTT cytotoxicity assay, complex 7; type: cell-based; conditions: SW620 (Dukes' C) colon cancer line, 24 hr
Experimental: (§3) For cytotoxicity evaluation HT29, SW480 and SW620 cell lines were employed; all the cell lines were grown in RPMI 1640 media (Fischer). All media were supplemented with 10% foetal bovine serum (FBS) and 45 IU/ml penicillin and 45 µg/ml streptomycin and cells were maintained at 37 °C in a 5% CO2 humidified incubator.
(§4) For sterilisation samples were filtered with a 0.2 micron cellulose acetate filter. For cytotoxicological evaluation all samples were prepared fresh on the day of exposure. A stock concentration of test compound was prepared in the exposure media (10% DMEM F-12) necessary for the cell line under test. This sample was vortexed to ensure a uniform dispersion of the compound under test.
(§5) For cytotoxicity assays cells were seeded in 96-well microplates (Nunc, Denmark) at a density of 1 x 10^5 cells/ml for the 24 hr test, 5 x10^4 cells/ml for the 48 hr test and 3 x 10^4 cells/ml for the 96 hr test. […] After 24 h of cell attachment, plates were washed with 100 µl/well phosphate buffered saline (PBS) and the cells were treated with increasing concentrations of each compound for 24 h. Six replicate wells were used for each control and test concentration per microplate. Following the desired time of compound exposure, control medium or test exposures were removed, the cells were rinsed with PBS and 100 µl of fresh medium (without FBS or supplements) was added to each well. 10 µl of MTT (5 mg/ml) prepared in PBS was then added to each well and the plates were incubated for 3 h at 37°C in a 5% CO2 humidified incubator. After this incubation period the medium was discarded, the cells were washed with 100 µl of PBS and 100 µl of DMSO was added to each well to extract the dye. The plate was shaken at 240 rpm for 10 min and the absorbance was measured at 570 nm.
(§6) At least three independent experiments were conducted in triplicate for each cell line and toxicity endpoint. […] Control values were set as 100%. Differences between samples and the control were evaluated using the statistical analysis package SPSS 14.0. Statistically significant differences were set at p≤0.05.

SW480 = assay: MTT cytotoxicity assay, complex 7; type: cell-based; conditions: SW480 (Dukes' B) colon cancer line, 24 hr
Experimental: as §3, §4, §5, §6

HT29 [3] = assay: MTT cytotoxicity assay, complex 7; type: cell-based, Human; conditions: HT29 colon cancer line, 24 hr
Experimental: as §3, §4
For cytotoxicity assays cells were seeded in 96-well microplates (Nunc, Denmark) at a density of 1 x 10^5 cells/ml for the 24 hr test, 5 x10^4 cells/ml for the 48 hr test and 3 x 10^4 cells/ml for the 96 hr test. […] After 24 h of cell attachment, plates were washed with 100 µl/well phosphate buffered saline (PBS) and the cells were treated with increasing concentrations of each compound for 24 h. […] The plate was shaken at 240 rpm for 10 min and the absorbance was measured at 570 nm.
At least three independent experiments were conducted in triplicate for each cell line and toxicity endpoint. […] Differences between samples and the control were evaluated using the statistical analysis package SPSS 14.0. […]

CT-DNA = assay: Competitive ethidium bromide displacement; type: binding, calf; conditions: 1.2 µM EtBr, 1 µM CT-DNAp, pH 7.0; for Kapp (apparent binding constant): Kapp = Ke x 1.26/C50 where Ke = 9.5 x 10^6 M(bp)^-1; for IC50: final volume 2 mL, 10 mM TES, 0.1 mM Na2EDTA, read-out: C50 = concentration required to reduce fluorescence by 50%
Experimental: Competitive Ethidium Displacement. […] Complexes 4-6, actinomycin D, pentamidine isethionate were prepared at 2.0 mM in DMSO. Two millilitres of DNA-Et solution were placed in a 10-mm quartz cuvet (3 mL) and positioned in a temperature controlled (20°C) spectrofluorometer (Perkin Elmer LS55B Luminescence Spectrometer). Excitation and emission wavelengths were set to 546 and 595 nm, respectively. After thermal equilibrium was established the emission and excitation slits were modified to give a fluorescence reading of 50 arbitrary units with measurements being recorded over a 20-s interval. An aliquot of complex or drug solution was taken (0.5 - 10 µL), was added to the cuvette and after equilibration the fluorescence reading was recorded. Repeated aliquots were added until the fluorescence was 20-40% of the initial control. Triplicate titrations were preformed and the apparent binding constants were calculated using Kapp = Ke x 1.26/C50 where Ke = 9.5 x 10^6 M(bp)^-1.

poly[d(A-T)]2 = assay: DNA-ethidium fluorescence quenching; type: binding; conditions: Q = equivalent concentration required to reduce fluorescence by 50%; 2.0 µM EtBr, 20 µM DNAp, 2 mM NaOAc buffer, 9.3 mM NaCl, pH 5.0
Experimental: (§7) DNA-Ethidium Fluorescence Quenching. Working solutions containing 20 µM poly[d(AT)]2 (ε260 = 13,100 M(bp)^-1 cm^-1), poly[d(G-C)]2 (ε260 = 16,800 M(bp)^-1 cm^-1) and CT-DNAp (ε260 = 12,824 M(bp)^-1 cm^-1) along with 2.0 µM Et in NaOAc buffer (2 mM NaOAc, 9.3 mM NaCl, 0.1 mM Na2EDTA, pH = 5.0) were prepared. Subsequent experimental steps are identical to the displacement experiment with the exception that a fluorescence reading of 200 arbitrary units with measurements being recorded over a 20-s interval was used. From a plot of the fluorescence vs added drug concentration, the Q values is given by the concentration required to effect 50% removal of the initial fluorescence.

poly[d(G-C)]2 = assay: DNA-ethidium fluorescence quenching; type: binding; conditions: Q = equivalent concentration required to reduce fluorescence by 50%; 2.0 µM EtBr, 20 µM DNAp, 2 mM NaOAc buffer, 9.3 mM NaCl, pH 5.0
Experimental: as §7

[4] = Homo sapiens, HT-29, HT29 colon cancer
[5] = Homo sapiens, MCF7, MCF-7 breast cancer
[6] = Homo sapiens, DU-145, DU145 prostate cancer

Molecule: O=C1c2c(O)ccc(O)c2C(=O)c2c(NCCNCCO)ccc(NCCNCCO)c21 [mitoxantrone, reference compound]
IC50 (SK-OV-3; Homo sapiens): 54.5 ± 2.6 µM
IC50 (HT29 [1]; [4]): 8 ± 0.6 µM
IC50 (MCF-7; [5]): 7.5 ± 0.2 µM
IC50 (DU145; [6]): 27.3 ± 5.6 µM

Molecule: O=C(O)c1ccccc1C(=O)O [phH2, phthalic acid, reference compound]
IC50 (SK-OV-3; Homo sapiens): > 500 µM
IC50 (HT29 [1]; [4]): > 500 µM
IC50 (MCF-7; [5]): > 500 µM
IC50 (DU145; [6]): > 500 µM

Molecule: {[Cu(isoph)(H2O)3]2H2O}n [Complex 2]
IC50 (SK-OV-3): 436 ± 29.4 µM
IC50 (HT29 [1]; HT29 colon cancer): > 500 µM
IC50 (MCF-7; MCF-7 breast cancer): 401 ± 54.1 µM
IC50 (DU145; DU145 prostate cancer): 422 ± 22.4 µM
Solubility [2]: DMSO/DMF

Molecule: N.N.[Cl][Pt][Cl] [Cisplatin, reference compound]
IC50 (SK-OV-3): > 500 µM
IC50 (HT29 [1]; HT29 colon cancer): 349 ± 80.6 µM
IC50 (MCF-7; MCF-7 breast cancer): 90.8 ± 3.5 µM
IC50 (DU145; DU145 prostate cancer): > 500 µM

Molecule: O=C(O)c1ccc(C(=O)O)cc1 [terphH2, terephthalic acid, reference compound]
IC50 (SK-OV-3; Homo sapiens): > 500 µM
IC50 (HT29 [1]; [4]): > 500 µM
IC50 (MCF-7; [5]): > 500 µM
IC50 (DU145; [6]): > 500 µM

Molecule: c1cnc2c(c1)ccc1cccnc12 [phen, 1,10-phenanthroline]
IC50 (SK-OV-3; Homo sapiens): 286 ± 28.5 µM
Activity LD50 (SW620): >100 µM
Activity LD50 (SW480): >100 µM
Activity LD50 (HT29 [3]): >100 µM
IC50 (HT29 [1]; [4]): 377 ± 9.2 µM
IC50 (MCF-7; [5]): 338 ± 64.7 µM
IC50 (DU145; [6]): 272 ± 8 µM

Molecule: [Cu(ph)(phen)2]8H2O [Complex 4]
IC50 (SK-OV-3): 6.7 ± 0.4 µM
Kapp (apparent binding constant) (CT-DNA): 1.21x10^5 M(bp)^-1
IC50 (CT-DNA): 99.1 µM
IC50 (HT29 [1]; HT29 colon cancer): 6 ± 0.4 µM
IC50 (MCF-7; MCF-7 breast cancer): 44.9 ± 7 µM
IC50 (DU145; DU145 prostate cancer): 11.6 ± 4.5 µM
IC50 (poly[d(A-T)]2): 26.2 µM
IC50 (poly[d(G-C)]2): 69.8 µM
Solubility [2]: forms only suspensions in DMSO/DMF

Molecule: Cc1c2oc3c(C)ccc(C(=O)NC4C(=O)NC(C(C)C)C(=O)N5CCCC5C(=O)N(C)CC(=O)N(C)C(C(C)C)C(=O)OC4C)c3nc-2c(C(=O)NC2C(=O)NC(C(C)C)C(=O)N3CCCC3C(=O)N(C)CC(=O)N(C)C(C(C)C)C(=O)OC2C)c(N)c1=O (stereo not drawn) [actinomycin D, reference compound] (I: TVP[Sar][NMeV] / II: TVP[Sar][NMeV]; ester I:1-I:C, II:1-II:C; linker I:N-II:N via Actinocin(9to1); configuration not given here)
Kapp (apparent binding constant) (CT-DNA): 9.69 x 10^5 M(bp)^-1
IC50 (CT-DNA): 12.3 µM
IC50 (poly[d(A-T)]2): 314 µM
IC50 (poly[d(G-C)]2): 4.25 µM

Molecule: {[Cu(tereph)(H2O)3]2H2O}n [Complex 3]
IC50 (SK-OV-3): > 500 µM
IC50 (HT29 [1]; HT29 colon cancer): > 500 µM
IC50 (MCF-7; MCF-7 breast cancer): 414 ± 26 µM
IC50 (DU145; DU145 prostate cancer): > 500 µM

Molecule: O=C(O)c1cccc(C(=O)O)c1 [isophH2, isophthalic acid, reference compound]
IC50 (SK-OV-3; Homo sapiens): > 500 µM
IC50 (HT29 [1]; [4]): > 500 µM
IC50 (MCF-7; [5]): > 500 µM
IC50 (DU145; [6]): > 500 µM

Molecule: O.O.O.O.O.O=C([O-])c1cccc(C(=O)[O-])c1.[Cu+2].c1cnc2c(c1)ccc1cccnc12.c1cnc2c(c1)ccc1cccnc12 [Complex 5, [Cu(isoph)(phen)2]5H2O]
IC50 (SK-OV-3): 6.6 ± 0.4 µM
Kapp (apparent binding constant) (CT-DNA): 1.20x10^5 M(bp)^-1
IC50 (CT-DNA): 99.8 µM
IC50 (HT29 [1]; HT29 colon cancer): 5.8 ± 0.2 µM
IC50 (MCF-7; MCF-7 breast cancer): 41.2 ± 1.4 µM
IC50 (DU145; DU145 prostate cancer): 10.6 ± 2.2 µM
IC50 (poly[d(A-T)]2): 20.9 µM
IC50 (poly[d(G-C)]2): 37.3 µM
Solubility [2]: DMSO/DMF

IC50 (CT-DNA): 19.7 µM
IC50 (poly[d(A-T)]2): 44.9 µM
IC50 (poly[d(G-C)]2): 203 µM
Molecule: N=C(N)c1ccc(OCCCCCOc2ccc(C(=N)N)cc2)cc1 [pentamidine, reference compound]
Kapp (apparent binding constant) (CT-DNA): 6.07x10^5 M(bp)^-1

Molecule: {[Cu(ph)(H2O)]}n [Complex 1]
IC50 (SK-OV-3): > 500 µM
IC50 (HT29 [1]; HT29 colon cancer): > 500 µM
IC50 (MCF-7; MCF-7 breast cancer): > 500 µM
IC50 (DU145; DU145 prostate cancer): > 500 µM
